Measurements taken from patent publication US5854067A, “Hexokinase inhibitors” (priority 1996, dated 1998).
Like-named read-outs stand apart in the source and are kept apart here. One block for each compound: values may come before it.

Assays:
[1] = target: T1, native (wild type) islet glucokinase (Rattus norvegicus, UniProt P17712); assay: Radioisotopic glucose phosphorylating activity assay in extracts of transiently transfected 293 cells, with and without G6P; type: biochemical; details: 10 mM unlabeled G6P, 3 and 20 mM glucose, 293 cell extracts
T1 construct: Plasmids containing DNA encoding either intact islet glucokinase; expressed in transfected cells; host or cells: 293 human embryonic kidney cells, transient transfection, crude extract
T1 sequence (P17712 1-465): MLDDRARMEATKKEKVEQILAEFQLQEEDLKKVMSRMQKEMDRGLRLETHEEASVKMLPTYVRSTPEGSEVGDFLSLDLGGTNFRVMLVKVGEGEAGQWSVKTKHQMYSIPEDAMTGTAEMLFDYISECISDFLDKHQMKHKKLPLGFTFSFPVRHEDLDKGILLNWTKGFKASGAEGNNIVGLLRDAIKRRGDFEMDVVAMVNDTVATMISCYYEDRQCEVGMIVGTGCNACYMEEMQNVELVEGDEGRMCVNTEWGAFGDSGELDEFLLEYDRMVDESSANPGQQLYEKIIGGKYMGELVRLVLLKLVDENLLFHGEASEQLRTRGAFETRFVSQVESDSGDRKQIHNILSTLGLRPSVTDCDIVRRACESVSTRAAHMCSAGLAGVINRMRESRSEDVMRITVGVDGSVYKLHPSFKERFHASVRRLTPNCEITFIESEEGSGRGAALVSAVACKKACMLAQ
Experimental: Plasmids containing DNA encoding either intact islet glucokinase, hexokinase I or one of the two hexokinase/glucokinase chimeras were introduced into the human embryonic kidney cell line 293, using Ca2 PO4 co-precipitation. After incubation with the plasmid DNA, cells were cultured for an additional 48 hours.
Assays were performed at 3 and 20 mM glucose. At the lower glucose concentration, hexokinase activity is maximal while glucokinase activity is very low. […] The assay was also performed in the presence and absence of 10 mM unlabeled glucose-6-phosphate (G6P).

[2] = test system: Glucokinase (GK, hexokinase IV); details: Table 1, GK, cited from earlier work
[3] = test system: Hexokinases I, II, and III (HK I-III, low Km hexokinases); details: Table 1, HK I-III, cited from earlier work

effect of glucose-6-phosphate on glucose phosphorylating activity [1]: no significant effect
SMILES: O=P(O)(O)OC[C@H]1OC(O)[C@H](O)[C@@H](O)[C@@H]1O (some centres unmarked) [G-6-P, glucose-6-phosphate]

SMILES: Nc1ncnc2c1ncn2[C@@H]1O[C@H](COP(=O)(O)OP(=O)(O)OP(=O)(O)O)[C@@H](O)[C@H]1O [ATP]
Km ([2]; read-out: Km ATP): 500 µM
Km ([3]; read-out: Km ATP): 200 to 500 µM

SMILES: OC[C@H]1OC(O)[C@H](O)[C@@H](O)[C@@H]1O (some centres unmarked) [glucose]
Km ([2]; read-out: Km glucose): 5000 to 12000 µM
Km ([3]; read-out: Km glucose): 20 to 130 µM
